Values of other authors in patent publication US6723530B1, “Polynucleotides encoding proexendin, and methods and uses thereof” (Amylin Pharmaceuticals, Inc., priority 1997, dated 2004).
No end group written: not given here.

Tests used:
[1] = tested on: guinea pig acinar cell preparations
[2] = tested on: cultured islet cell lines; details: cultured islet cell lines in vitro

Row | Substance | cAMP levels [1] | cAMP accumulation [2] | glucose-dependent insulin secretion [2] | insulin gene expression [2] | mode of action towards GLP-1 (agonist / antagonist) (GLP-1)
1 | exendin 4 | increased | increase | stimulate | increase | strong agonist
2 | exendin 4(9-39)NH3: truncated exendin 4, competitive antagonist of both exendin 4 and GLP-1 |  |  |  |  | competitive antagonist
3 | truncated GLP-1[7-36)-amide: truncated mammalian GLP-1 peptide amide (HAEGTFTSDVSSYLEGQAAKEFIAWLVKGR-NH2) | increased |  |  |  | 
